Tested on: TFEB
Experiment: TFEB Nuclear Translocation Assay
Assay type: cell-based
Details: read-out: EC50 of TFEB activation

Structure (SMILES)	EC50 [nM]
O=S(=O)(n1nc(N2CCN(c3ncc(F)cn3)CC23CC3)c2c(Cl)cccc21)C12CC(F)(C1)C2 [Compound 132, 4-chloro-1-[(3-fluoro-1-bicyclo [1.1.1]pentanyl)sulfonyl]-3-[7-(5-fluoropyrimidin-2-yl)-4,7-diazaspiro [2.5]octan-4-yl]indazole]	≥ 10000
CC(C)S(=O)(=O)n1ccc(S(=O)(=O)n2nc(N3CCN(c4ncc(Cl)s4)CC34CC4)c3c(Cl)cc(F)cc32)c1 [Compound 157, 5-chloro-2-(4-(4-chloro-6-fluoro-1-((1-(isopropylsulfonyl)-1H-pyrrol-3-yl)sulfonyl)-1H-indazol-3-yl)-4,7-diazaspiro [2.5]octan-7-yl) thiazole]	≤ 1000
CC(F)(F)c1ccc(S(=O)(=O)n2nc(N3CCC3C(F)(F)F)c3c(Cl)cccc32)cc1 (centres unmarked) [Compound 104, 4-chloro-1-[4-(1,1-difluoroethyl)phenyl]sulfonyl-3-[2-(trifluoromethyl)azetidin-1-yl]indazole]	≤ 1000
CC(C)S(=O)(=O)c1nc(S(=O)(=O)n2nc(N3CCN(c4ncc(F)cc4F)CC34CC4)c3c(F)cc(F)cc32)cs1 [Compound 198, 4-((3-(7-(3,5-difluoropyridin-2-yl)-4,7-diazaspiro [2.5]octan-4-yl)-4,6-difluoro-1H-indazol-1-yl)sulfonyl)-2-(isopropylsulfonyl) thiazole]	1000 to 10000
O=S(=O)(c1ccn(S(=O)(=O)C2CC2)c1)n1nc(N2CCN(c3ncc(F)cc3F)CC23CC3)c2c(Cl)ccc(F)c21 [Compound 143, 4-chloro-1-((1-(cyclopropylsulfonyl)-1H-pyrrol-3-yl)sulfonyl)-3-(7-(3,5-difluoropyridin-2-yl)-4,7-diazaspiro [2.5]octan-4-yl)-7-fluoro-1H-indazole]	≤ 1000
CC(C)S(=O)(=O)c1ccc(S(=O)(=O)n2nc(N3CCN(c4ncc(F)cn4)C[C@@H]3C3CC3)c3c(Cl)cccc32)cc1 [Compound 60, (S)-4-chloro-3-(2-cyclopropyl-4-(5-fluoropyrimidin-2-yl)piperazin-1-yl)-1-((4-(isopropylsulfonyl)phenyl)sulfonyl)-1H-indazole]	≤ 1000
O=S(=O)(c1ccc(SC(F)F)cc1)n1nc(N2CCN(c3ncc(F)cn3)CC23CC3)c2c(Cl)cccc21 [Compound 93, 4-chloro-1-[4-(difluoromethylsulfanyl)phenyl]sulfonyl-3-[7-(5-fluoropyrimidin-2-yl)-4,7-diazaspiro [2.5]octan-4-yl]indazole]	≤ 1000
CC(C)(C)S(=O)(=O)c1ccc(S(=O)(=O)n2nc(N3CCN(c4ncc(F)cn4)CC34CC4)c3c(Cl)cccc32)s1 [Compound 49, 1-((5-(tert-butylsulfonyl)thiophen-2-yl)sulfonyl)-4-chloro-3-(7-(5-fluoropyrimidin-2-yl)-4,7-diazaspiro [2.5]octan-4-yl)-1H-indazole]	≤ 1000
CC(C)S(=O)(=O)n1ccc(S(=O)(=O)n2nc(N3CCN(c4ncc(F)cc4F)CC34CC4)c3c(F)cc(F)cc32)c1 [Compound 159, 3-(7-(3,5-difluoropyridin-2-yl)-4,7-diazaspiro [2.5]octan-4-yl)-4,6-difluoro-1-((1-(isopropylsulfonyl)-1H-pyrrol-3-yl)sulfonyl)-1H-indazole]	≤ 1000
CC(C)S(=O)(=O)n1ccc(S(=O)(=O)n2nc(N3CCN(c4ncc(F)cn4)CC34CC4)c3c(F)cc(F)cc32)c1 [Compound 166, 4,6-difluoro-3-(7-(5-fluoropyrimidin-2-yl)-4,7-diazaspiro [2.5]octan-4-yl)-1-((1-(isopropylsulfonyl)-1H-pyrrol-3-yl)sulfonyl)-1H-indazole]	≤ 1000
CC(F)(F)c1ccc(S(=O)(=O)n2nc(N3CCN(c4ccc(F)cc4Cl)CC34CC4)c3c(Cl)cccc32)cc1 [Compound 125, 4-chloro-3-(7-(2-chloro-4-fluorophenyl)-4,7-diazaspiro [2.5]octan-4-yl)-1-((4-(1,1-difluoroethyl)phenyl)sulfonyl)-1H-indazole]	≤ 1000
CC(F)(F)c1ccc(S(=O)(=O)n2nc(N3CCN(c4ncc(F)cn4)CC34CC4)c3c(Cl)ccc(F)c32)cc1 [Compound 103, 4-chloro-1-[4-(1,1-difluoroethyl)phenyl]sulfonyl-7-fluoro-3-[7-(5-fluoropyrimidin-2-yl)-4,7-diazaspiro [2.5]octan-4-yl]indazole]	≤ 1000
CC(C)S(=O)(=O)c1ccc(S(=O)(=O)n2nc(N3CCCCC3C(F)(F)F)c3c(Cl)cccc32)cc1 (centres unmarked) [Compound 66, 4-chloro-1-(4-isopropylsulfonylphenyl)sulfonyl-3-[2-(trifluoromethyl)-1-piperidyl]indazole]	≤ 1000
O=S(=O)(c1ccc(C2(F)COC2)cc1)n1nc(N2CCN(c3ncc(F)cn3)CC23CC3)c2c(Cl)cccc21 [Compound 89, 4-chloro-1-[4-(3-fluorooxetan-3-yl)phenyl]sulfonyl-3-[7-(5-fluoropyrimidin-2-yl)-4,7-diazaspiro [2.5]octan-4-yl]indazole]	≤ 1000

The next lines start with the values.

EC50 [nM]	Structure (SMILES)
≤ 1000	O=S(=O)(c1ccn(S(=O)(=O)C2CC2)c1)n1nc(N2CCN(c3ncc(F)cn3)CC23CC3)c2c(Cl)cc(F)cc21 [Compound 173, 4-chloro-1-((1-(cyclopropylsulfonyl)-1H-pyrrol-3-yl)sulfonyl)-6-fluoro-3-(7-(5-fluoropyrimidin-2-yl)-4,7-diazaspiro [2.5]octan-4-yl)-1H-indazole]
≤ 1000	CC(C)S(=O)(=O)n1ccc(S(=O)(=O)n2nc(N3CCN(c4ncc(Cl)cc4F)CC34CC4)c3c(Cl)ccc(F)c32)c1 [Compound 147, 4-chloro-3-[7-(5-chloro-3-fluoro-2-pyridyl)-4,7-diazaspiro [2.5]octan-4-yl]-7-fluoro-1-(1-isopropylsulfonylpyrrol-3-yl) sulfonyl-indazole]
≤ 1000	O=S(=O)(c1ccc(OC(F)F)cc1)n1nc(N2CCN(c3ncc(F)cn3)CC23CC3)c2c(Cl)cccc21 [Compound 115, 4-chloro-1-[4-(difluoromethoxy)phenyl]sulfonyl-3-[7-(5-fluoropyrimidin-2-yl)-4,7-diazaspiro[2.5]octan-4-yl]indazole]
≤ 1000	CC(F)(F)c1ccc(S(=O)(=O)n2nc(N3CCN(c4ncc(F)cn4)CC34CC4)c3c(Cl)cccc32)cc1 [Compound 116, 4-chloro-1-[4-(1,1-difluoroethyl)phenyl]sulfonyl-3-[7-(5-fluoropyrimidin-2-yl)-4,7-diazaspiro[2.5]octan-4-yl]indazole]
≤ 1000	O=S(=O)(c1ccn(S(=O)(=O)C2CC2)c1)n1nc(N2CCN(c3ncc(Cl)cc3F)CC23CC3)c2c(F)ccc(F)c21 [Compound 146, 3-[7-(5-chloro-3-fluoro-2-pyridyl)-4,7-diazaspiro [2.5]octan-4-yl]-1-(1-cyclopropylsulfonylpyrrol-3-yl) sulfonyl-4,7-difluoro-indazole]
≤ 1000	CC(F)(F)c1ccc(S(=O)(=O)n2nc(N3CCN(c4ncc(F)cn4)C[C@H]3C(F)(F)F)c3c(Cl)cccc32)cc1 [Compound 106, 4-chloro-1-[4-(1,1-difluoroethyl)phenyl]sulfonyl-3-[(2S)-4-(5-fluoropyrimidin-2-yl)-2-(trifluoromethyl)piperazin-1-yl]indazole]
≤ 1000	CC(C)(C)S(=O)(=O)c1ccc(S(=O)(=O)n2nc(N3CCN(c4ncc(Cl)cn4)CC34CC4)c3c(Cl)cccc32)s1 [Compound 1, 1-[(5-tert-butylsulfonyl-2-thienyl)sulfonyl]-4-chloro-3-[7-(5-chloropyrimidin-2-yl)-4,7-diazaspiro [2.5]octan-4-yl]indazole]
≤ 1000	CC(C)S(=O)(=O)c1ccc(S(=O)(=O)n2nc(N3CCN(c4ncc(Cl)cc4F)CC34CC4)c3c(Cl)cccc32)s1 [Compound 30, 4-chloro-3-[7-(5-chloro-3-fluoro-2-pyridyl)-4,7-diazaspiro [2.5]octan-4-yl]-1-[(5-isopropylsulfonyl-2-thienyl)sulfonyl]indazole]
≤ 1000	CC(C)S(=O)(=O)c1ccc(S(=O)(=O)n2nc(N3CCN(C(=O)C(F)(F)F)C[C@@H]3C(F)(F)F)c3c(Cl)cccc32)cc1 [Compound 70, 1-[(3R)-4-[4-chloro-1-(4-isopropylsulfonylphenyl)sulfonyl-indazol-3-yl]-3-(trifluoromethyl)piperazin-1-yl]-2,2,2-trifluoro-ethanone]
≤ 1000	CC(C)S(=O)(=O)n1ccc(S(=O)(=O)n2nc(N3CCN(c4ccc(F)cn4)CC34CC4)c3c(Cl)cc(F)cc32)c1 [Compound 161, 4-chloro-6-fluoro-3-[7-(5-fluoro-2-pyridyl)-4,7-diazaspiro [2.5]octan-4-yl]-1-(1-isopropylsulfonylpyrrol-3-yl) sulfonyl-indazole]
≤ 1000	CC(C)S(=O)(=O)n1ccc(S(=O)(=O)n2nc(N3CCN(c4ccc(F)cn4)CC34CC4)c3c(F)cc(F)cc32)c1 [Compound 165, 4,6-difluoro-3-(7-(5-fluoropyridin-2-yl)-4,7-diazaspiro [2.5]octan-4-yl)-1-((1-(isopropylsulfonyl)-1H-pyrrol-3-yl)sulfonyl)-1H-indazole]
≤ 1000	CC(C)S(=O)(=O)c1ccc(S(=O)(=O)n2nc(N3CCN(c4ncc(F)cn4)C[C@H]3C(F)(F)F)c3c(F)cccc32)cc1 (single isomer, unassigned) [Compound 73]
≤ 1000	CC(C)S(=O)(=O)n1ccc(S(=O)(=O)n2nc(N3CCN(c4ncc(F)cn4)CC34CC4)c3c(Cl)cccc32)c1 [Compound 111, 4-chloro-3-[7-(5-fluoropyrimidin-2-yl)-4,7-diazaspiro [2.5]octan-4-yl]-1-(1-isopropylsulfonylpyrrol-3-yl) sulfonyl-indazole]
≤ 1000	O=S(=O)(c1ccc(C(F)(F)F)cc1)n1nc(N2CCN(c3ncc(F)cn3)CC23CC3)c2c(Cl)cccc21 [Compound 113, 4-chloro-3-[7-(5-fluoropyrimidin-2-yl)-4,7-diazaspiro[2.5]octan-4-yl]-1-[4-(trifluoromethyl)phenyl]sulfonyl-indazole]
≤ 1000	[2H]c1c(S(=O)(=O)n2nc(N3CCN(c4ncc(F)cn4)CC34CC4)c3c(Cl)cc(F)cc32)c([2H])n(S(=O)(=O)C(C)(C)Cl)c1[2H] [Compound 181, 4-chloro-1-[1-(1-chloro-1-methyl-ethyl)sulfonyl-2,4,5-trideuterio-pyrrol-3-yl]sulfonyl-6-fluoro-3-[7-(5-fluoropyrimidin-2-yl)-4,7-diazaspiro[2.5]octan-4-yl]indazole]
